Converted amounts (≈) assume the structure as drawn. “And” between values parts separate entries of the source, which are not always exact repeats. Equal values may be shown once. Read-outs that look alike come from different tables or passages of the source.
Experiments:
[1] = test system: Escherichia coli (ATCC-25922); assay: MIC, micro dilution method; type: cell-based; conditions: ATCC25922, E. coli
Method: (§1) The disk diffusion method was used for the preliminary antibacterial evaluation of 1-pyridylimidazo[1,5-a]pyridine derivatives. The MIC50 of these derivatives, showing inhibition in the preliminary tests, were further determined by the microtitre plate technique using micro dilution method. In brief, the bacterial strains (S. aureus, P. vulgaris, Group D Streptococci, Bacillus sp., E. coli, P. aeruginosa and S. morganii)) were grown and diluted to 2×10^5 colony-forming units (CFU)/ml in sodium phosphate buffer (SPB) containing 0.03% Luria–Bertani (LB) broth. The synthesized derivatives were dissolved in DMSO and their serial dilution was performed in 50 µL of LB medium in 96-well microtitre plate to achieve the required concentrations (0.1–10 µg/ml) with bacterial inoculums (5×10^4 CFU per well). DMSO was taken as negative control and Ceftriaxone and clotrimazole were taken as positive control. After incubation at 37°C overnight, the MICs were taken as the lowest inhibitor concentration at which the bacterial growth was inhibited. The average of three values was calculated and that was the MIC for the test material and bacterial strain. […]

[2] = test system: Staphylococcus aureus (ATCC-25923); assay: MIC, micro dilution method; type: cell-based; conditions: ATCC25923, S. aureus
Method: as §1

[3] = test system: Pseudomonas aeruginosa (ATCC-27853); assay: MIC, micro dilution method; type: cell-based; conditions: ATCC27853
Method: as §1

[4] = test system: Bacillus spp. (ATCC-14593); assay: MIC, micro dilution method; type: cell-based; conditions: ATCC14593; Bacillus sp.
Method: as §1

[5] = test system: Proteus vulgaris (ATCC-29905); assay: MIC, micro dilution method; type: cell-based; conditions: ATCC29905, P. vulgaris
Method: as §1

[6] = test system: Escherichia coli (ATCC-25922); assay: MBC, sub cultivation from MIC plate; type: cell-based; conditions: ATCC25922, E. coli
Method: (§2) After having determined the MICs, bacterial strains from the wells of the microtitre plate with no visible bacterial growth were removed for serial sub cultivation of 2 µl into another new microtitre plate containing 100 µl of broth per well and further incubated for 24 h. The lowest concentration with no visible growth was defined as MBC [28], indicating 99.5% killing of the original inoculum. The absorbance of each well was measured at a wavelength of 620 nm by Microplate Manager 4.0 (Bio-Rad laboratories) and compared with a blank. Solvent (DMSO) was used as a negative control. Three replicates were done for each compound and experiment was repeated two times.

[7] = test system: Staphylococcus aureus (ATCC-25923); assay: MBC, sub cultivation from MIC plate; type: cell-based; conditions: ATCC25923, S. aureus
Method: as §2

[8] = test system: Pseudomonas aeruginosa (ATCC-27853); assay: MBC, sub cultivation from MIC plate; type: cell-based
Method: as §2

[9] = test system: Bacillus spp. (ATCC-14593); assay: MBC, sub cultivation from MIC plate; type: cell-based; conditions: ATCC14593, Bacillus sp.
Method: as §2

[10] = test system: Proteus vulgaris (ATCC-29905); assay: MBC, sub cultivation from MIC plate; type: cell-based; conditions: ATCC29905, P. vulgaris
Method: as §2

[11] = test system: Group D Streptococci (ATCC-12959); assay: MBC, sub cultivation from MIC plate; type: cell-based
Method: as §2

[12] = test system: Serratia morganii (ATCC- 31665); assay: MBC, sub cultivation from MIC plate; type: cell-based
Method: as §2

[13] = test system: Group D Streptococci (ATCC-12959); assay: MIC, micro dilution method; type: cell-based
Method: (§3) The disk diffusion method was used for the preliminary antibacterial evaluation of 1-pyridylimidazo[1,5-a]pyridine derivatives. The MIC50 of these derivatives, showing inhibition in the preliminary tests, were further determined by the microtitre plate technique using micro dilution method. In brief, the bacterial strains (S. aureus, P. vulgaris, Group D Streptococci, Bacillus sp., E. coli, P. aeruginosa and S. morganii)) were grown and diluted to 2×10^5 colony-forming units (CFU)/ml in sodium phosphate buffer (SPB) containing 0.03% Luria–Bertani (LB) broth. The synthesized derivatives were dissolved in DMSO and their serial dilution was performed in 50 µL of LB medium in 96-well microtitre plate to achieve the required concentrations (0.1–10 µg/ml) with bacterial inoculums (5×10^4 CFU per well). DMSO was taken as negative control and Ceftriaxone and clotrimazole were taken as positive control. After incubation at 37°C overnight, the MICs were taken as the lowest inhibitor concentration at which the bacterial growth was inhibited. The average of three values was calculated and that was the MIC for the test material and bacterial strain.
(§4) For the agar plate count method, 25 µL aliquots of bacteria at 1×10^5 CFU/ml in SPB containing 0.03% LB broth were incubated with 25 µL of diluted compounds for 2 h at 37°C. The mixtures of bacteria and compounds were serially diluted 10-fold with SPB and plated on LB plates that were incubated at 37°C overnight. Bacterial colonies were enumerated the following day.

[14] = test system: Serratia morganii (ATCC- 31665); assay: MIC, micro dilution method; type: cell-based; conditions: ATCC31665
Method: as §3, §4

[15] = test system: Bacillus spp. (ATCC-14593); assay: MIC, micro dilution method; type: cell-based; conditions: ATCC14593; Bacillus sp.; remark: listed apart in the source
papain [16] = molecular target: T1, papain (Carica papaya, UniProt P00784); assay: Cysteine protease inhibitory activity, papain with Bz-DL-Arg-pNA substrate; type: biochemical
T1 construct: To solutions of active papain (final concentration: 0.05 mM); purchased Sigma Chemical Co., St. Louis, MO, USA
T1 sequence (P00784 134-345): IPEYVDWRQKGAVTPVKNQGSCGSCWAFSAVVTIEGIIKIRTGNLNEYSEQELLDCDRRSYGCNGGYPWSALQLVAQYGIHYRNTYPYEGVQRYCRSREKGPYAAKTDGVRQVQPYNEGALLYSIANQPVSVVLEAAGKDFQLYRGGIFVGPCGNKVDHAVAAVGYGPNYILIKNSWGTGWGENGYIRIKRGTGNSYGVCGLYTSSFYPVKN
Method: The capacity of the 1-pyridylimidazo[1,5-a]pyridine derivatives to inhibit cysteine proteases was tested using papain as the model enzyme. The proteolytic activity of the reaction mixtures was determined using Bz-DL-Arg-pNA as the chromogenic substrate. To solutions of active papain (final concentration: 0.05 mM) were added concentrated solutions of the different derivatives to final concentrations of 0.2 mM. […] The same procedure was used at 32°C and 42°C for thermodynamics studies. The kinetic parameters for the substrate hydrolysis were determined by measuring the initial rate of enzymatic activity. The inhibition constant Ki was determined by Dixon method and also by the Lineweaver–Burk equation. The Km value was calculated from the double-reciprocal equation by fitting the data into the computer software Origin 6.1. The Lineweaver–Burk plot was used to determine the types of inhibition. For the kinetic analysis and rate constant determinations, the assays were carried out in triplicate, and the average value was considered throughout this work.

papain [17] = molecular target: T1, papain; assay: Thermodynamics analysis of papain inhibition (Van't Hoff); type: biochemical; conditions: Value at 37°C
Method: Free energy changes of inhibition of papain against 1- substituted pyridylimidazo[1,5-a] pyridine derivatives (ΔG) were determined by the equation, [drawing 1] (1)
Temperature dependence of the inhibition constants was used to determine the thermodynamic parameters. Changes in enthalpy (ΔH) were determined from the Van’t Hoff plots by using the equation, [drawing 2] (2)
Where ΔH is enthalpy change, R is gas constant, ΔS is entropy change and T is the absolute temperature. The entropy change was obtained from the equation, [drawing 3] (3)

## CC(C)(C)c1cc(-c2nc(-c3ccccn3)c3ccccn23)cc(C(C)(C)C)c1O [Compound 3d, 1-(2-pyridyl)-3-(3,5-di-tert-butyl-4-hydroxyphenyl) imidazo[1,5-a]pyridine]
[1]
  MIC50: 1.2 µg/mL (≈ 3 µM)
  MIC90: 2.3 µg/mL (≈ 5.76 µM)
[2]
  MIC50: 1.2 µg/mL (≈ 3 µM)
  MIC90: 2.3 µg/mL (≈ 5.76 µM)
[3]
  MIC50: 1.2 µg/mL (≈ 3 µM)
  MIC90: 2 µg/mL (≈ 5.01 µM)
[4]
  MIC50: 1.4 µg/mL (≈ 3.5 µM)
[5]
  MIC50: 0.9 µg/mL (≈ 2.25 µM)
  MIC90: 1.7 µg/mL (≈ 4.25 µM)
[6]; read-out: MBC50
  MBC: 2.5 µg/mL (≈ 6.26 µM)
[6]; read-out: MBC90
  MBC: 4.9 µg/mL (≈ 12.3 µM)
[7]; read-out: MBC50
  MBC: 2.6 µg/mL (≈ 6.51 µM)
[7]; read-out: MBC90
  MBC: 5.2 µg/mL (≈ 13 µM)
[8]; ATCC27853, read-out: MBC50
  MBC: 2.4 µg/mL (≈ 6.01 µM)
[8]; ATCC27853, read-out: MBC90
  MBC: 4.4 µg/mL (≈ 11 µM)
[9]; read-out: MBC50
  MBC: 2.5 µg/mL (≈ 6.26 µM)
[9]; read-out: MBC90
  MBC: 4.7 µg/mL (≈ 11.8 µM)
[10]; read-out: MBC50
  MBC: 1.7 µg/mL (≈ 4.25 µM)
[10]; read-out: MBC90
  MBC: 3.4 µg/mL (≈ 8.51 µM)
[11]; read-out: MBC50
  MBC: 2.3 µg/mL (≈ 5.76 µM)
[11]; read-out: MBC90
  MBC: 4.4 µg/mL (≈ 11 µM)
[12]; ATCC31665, read-out: MBC50
  MBC: 2.4 µg/mL (≈ 6.01 µM)
[12]; ATCC31665, read-out: MBC90
  MBC: 4.4 µg/mL (≈ 11 µM)
[13]
  MIC50: 1 µg/mL (≈ 2.5 µM)
  MIC90: 1.9 µg/mL (≈ 4.76 µM)
[14]
  MIC50: 1.1 µg/mL (≈ 2.75 µM)
  MIC90: 2.1 µg/mL (≈ 5.26 µM)
[15]
  MIC90: 2.6 µg/mL (≈ 6.51 µM)
Papain [16]; 32°C
  Ki: 110 µM
Papain [16]; 37°C
  Ki: 99.3 µM
Papain [16]; 42°C
  Ki: 89.2 µM
Papain [16]; Lineweaver–Burk plot
  Type of inhibition: Non -Competitive
Papain [16]; papain
  IC50: 96.5 µM
Papain [17]
  ΔG (free energy of binding): −5.64 Kcalmol^−1 and −5.64(±0.24) Kcalmol^−1
  ΔS (entropy change): 59.73(±1.93) Jmol-K^−1
Papain [17]; Van't Hoff plot
  ΔH (enthalpy change): −5.2 (±0.84) KJmol^−1

Reference: PMC3734177, “Design, Synthesis, Evaluation and Thermodynamics of 1-Substituted Pyridylimidazo[1,5-a]Pyridine Derivatives as Cysteine Protease Inhibitors” (PLoS ONE, 2013)
